Source: patent US20040253718A1, “Methods of producing neurons” (priority 2003, published 2004)

Assays:
[1] = system: dermal-derived UMC; experiment: Culture of UMC in plasma clots to generate neurons; assay type: cell-based, human; details: aFGF as the only growth factor in the culture medium
Protocol: The presence of higher concentration of Ca^2+ than normally present in culture medium (i.e., about 2 mM) was essential for growth of neurons in the plasma clot UMC cultures.
Lyophilized bovine plasma (Sigma Aldrich Co., St. Louis, Mo.; Cat. No. P-4639) was reconstituted with an appropriate volume of tissue culture medium not containing heparin, e.g., DMEM or Neurobasal medium (see above). An appropriate volume of a stock solution of CaCl2 (e.g., 300 mM) was added to a series of plastic tissue culture dishes (one set having a diameter of 30 mm and another set having a diameter of 60 mm) so as to give a final concentration of 15 mM after addition of plasma. Plasma was added to the culture dishes (1 ml to 30 mm dishes and 2 ml to the 60 mm dishes), which were swirled in order to mix the CaCl2 and plasma. […]
The dishes were then incubated at room temperature or 37° C. until the plasma had clotted. […] The dishes were then stored in a tissue culture incubator at 37° C. in at atmosphere of 10% CO2 until ready for use. A small quantity (about 5 cells to about 10^5 cells per clot) of dermal-derived UMC prepared as described in Example 1 was added to each dish and the cells were allowed to settle onto each clot. […]

[2] = system: UMC from skin and adipose tissue; experiment: Culture of non-adherent UMC from skin and adipose tissue; assay type: cell-based, human
Protocol: Cells were harvested and enriched in vitro for UMC by initiation of cultures from a skin biopsy obtained from a normal healthy human volunteer as follows. Biopsies of about 10 to about 200 mm^3 were obtained from the post auriculum area, and fibroblast tissue culture initiated as described above using DMEM containing 4500 mg/L D-glucose, 2 mM L-glutamine, nonessential amino acids, and 10% FBS. Colonies of non-adherent, actively growing cells were observed after adherent fibroblasts had reached full confluence in passage two or three. This process could be shortened by initiation of the culture in low serum and by the presence of 5 ng/ml aFGF, or by growth of the cells in a plasma clot directly from tissue (see Example 2) with addition of 300 mM CaCl2 to a final concentration of 15 mM. […] The colonies were collected by aspiration of culture medium containing the floating colonies and centrifugation of this medium. The cells pelleted by centrifugation were transferred to new tissue culture vessels by direct seeding in fresh culture medium containing aFGF and heparin (DMEM containing 4500 mg/L D-glucose, 2 mM L-glutamine, 2.5% heat inactivated FBS, 5 ng/mL recombinant human aFGF, and 5 μg/mL heparin). The cell suspension was added to fresh tissue culture flasks, which were incubated at 37° C. […]

## aFGF: recombinant human acidic fibroblast growth factor
[1]
  growth of human neurons: Enhanced growth
[2]; in the presence of aFGF
  morphology of cells in culture: morphologically homogeneous in appearance and had a cobblestone-like morphology
[2]; upon removal of aFGF from the culture medium
  fate of cells in culture: most of the cells fully differentiated into adherent fibroblasts
